Structures can show the parent of a compound that is named as a salt. Where two headings read alike, the source gives them in different places.
Key:
Format in all cases: cell-based
[1] = system: phosphorylated ERK (pERK); assay: Detection of phosphorylated ERK (pERK), AlphaLISA in A375 cells; conditions: four hours incubation, inhibition of ERK phosphorylation, read-out: PERK ELISA (IC50)
Experimental: A375 cells were counted and seeded at 10,000 cells/well in 384 well plates (Corning 3764) and allowed to adhere overnight.
Compounds were dissolved and serially diluted in DMSO. The compounds were then added, mixed, and incubated for four hours at 37° C., 5% CO2. Compounds were added using four-fold dilutions at final concentrations ranging from 10 μM to 0.01 nM. DMSO only and 10 uM staurosporine were added as high and low controls.
Following the four-hour incubation with compounds, cell lysates were prepared and AlphaLISA assay measuring phosphorylated ERK was performed. Media was removed using the Apricot Designs pipettor. Lysis buffer was made from 1× AlphaLISA SureFire Assay Kit (AlphaLISA SureFire Ultra pERK 12 (Thr202/Tyr204) ALSU-PERK-A50K) lysis buffer with protease and phosphatase inhibitors. Cells were lysed by adding 10 uL to all the wells and mixed for 40 minutes on a plate shaker. 10 uL cell lysate was transferred to a new Optiplate (PerkinElmer 6007290) and incubated with 5 uL 1× acceptor mix for 2 hours in the dark. 5 uL of 1× donor mix was added to all wells and mixed by shaking followed by overnight incubation in the dark.
pERK AlphaLISA signal was read on the Envision using standard AlphaLISA settings. Percent inhibition of ERK phosphorylation was calculated by % Inhibition=100×(LumHC−LumSample)/(LumHC−LumLC). The low and high controls (LC/HC) are generated from lysate from wells with cells treated with DMSO or […] Staurosporine (BioAustralis, cat #BIA-S1086), […]. IC50 values were calculated by fitting the Curve using XLfit (v5.3.1.3), equation 201: Y=Bottom+(Top−Bottom)/(1+10^((Log IC50−X)*HillSlope)).

A375 (BRAF V600E) = assay: Cell viability assay (CellTiter Glo)
Experimental: (§1) Cell viability was measured in the following MAPK pathway mutant cancer cell lines: A375 (BRAF V600E), HepG2 (NRAS Q61L), SK-MEL-30 (NRAS Q61K), and OCI-AML-2 (MBNL1-CRAF fusion). Cell viability was also measured in K562 cells.
(§2) A375, HepG2, SK-MEL-30 and OCI-AML-2 cells were grown in the appropriate growth medium as described in Table B2 below, and harvested at 50-80% confluence. Cells were counted and seeded at their appropriate density (see Table B1) in a 384-well plate (Corning 3570). A375, HepG2 and SK-MEL-30 were allowed to adhere overnight prior to treatment and the OCI-AML-2 were treated immediately for the indicated drug treatment times (Table 6).
(§3) Table 6 provides the growth media, number of cells seeded per well and drug treatment times for the each cell line. K562 cells were grown as described in Example B1 above.
(§4) Compounds were dissolved in DMSO and serially diluted. Serially-diluted compound or a DMSO only control (high control, “HC”) was added to the plated cells in each well. Compounds were tested at concentrations of about 10 μM to 0.51 nM, using three-fold dilutions. The final proportion of DMSO never exceeded 0.1%.
(§5) Plates were placed in a 37° C., […] incubator for the indicated treatment times (Table B1). Plates were then removed from the incubator and equilibrated for 15 minutes at room temperature. 40 μl of CellTiter Glo reagent (Promega) was added to measure the relative level of metabolically active cells by quantifying intracellular ATP concentrations. Plates were incubated for 30 minutes at room temperature, and luminescence was measured. Percent viability was normalized to a vehicle control only using the following formula: 0 viability=100×(LumSample−LumLC)/(LumHC−LumLC). Graphical curves were fitted using a nonlinear regression model with a sigmoidal dose response.

HepG2 (NRAS Q61L) = assay: Cell viability assay (CellTiter Glo); conditions: HepG2, 750 cells per well, read-out: BRAF Cytotoxicity (IC50, nM) HEPG2
Experimental: as §1, §2, §3, §4, §5

SK-MEL-30 (NRAS Q61K) = assay: Cell viability assay (CellTiter Glo); conditions: SK-MEL-30, 750 cells per well, read-out: BRAF Cytotoxicity (IC50, nM) SK-MEL-30
Experimental: as §1, §2, §3, §4, §5

[2] = system: OCI-AML-2 (MBNL1-CRAF fusion); assay: Cell viability assay (CellTiter Glo); conditions: OCI-AML-2, 1000 cells per well, read-out: BRAF Cytotoxicity (IC50, nM) OCI-AML-2
Experimental: as §1, §2, §3, §4, §5

[3] = A375, 1000 cells seeded per well, 72 hours, read-out: BRAF Cytotoxicity (IC50, nM) A375 (1000 cells)
[4] = A375, 250 cells seeded per well, 72 hours, read-out: BRAF Cytotoxicity (IC50, nM) A375 (250 cells)
[5] = Homo sapiens, A-375, 72 h, A375, 1000 cells seeded per well, read-out: BRAF Cytotoxicity (IC50, nM) A375 (1000 cells)

| Structure (SMILES) | IC50 ([1]; Homo sapiens, A-375, 4 h) | IC50 [1] | further results |
| --- | --- | --- | --- |
| Cc1cc([C@H](O)C(C)(F)F)ncc1-c1cc2cnc(NC(=O)C3CC3)cc2n(C)c1=O (single isomer, unassigned) [Compound 116, formate] | 78.1 nM | – | – |
| Cc1cc([C@@H](O)C(C)(F)F)ncc1-c1cc2cnc(NC(=O)C3CC3)cc2n(C)c1=O (single isomer, unassigned) [Compound 117] | 61.3 nM | – | – |
| CC[C@@H](O)c1cc(C)c(-c2cc3cnc(NC(=O)[C@@H]4CC4(F)F)cc3n(C)c2=O)cn1 (single isomer, unassigned) [Compound 123] | 119 nM | – | – |
| CC[C@H](O)c1cc(C)c(-c2cc3cnc(NC(=O)[C@@H]4CC4(F)F)cc3n(C)c2=O)cn1 (single isomer, unassigned) [Compound 124] | 63.5 nM | – | – |
| CCCC(O)c1cc(C)c(-c2cc3cnc(NC(=O)C4CC4)cc3n(C)c2=O)cn1 (single isomer, unassigned) [Example S42, Enantiomer A, N-(3-(6-(1-hydroxybutyl)-4-methylpyridin-3-yl)-1-methyl-2-oxo-1,2-dihydro-1,6-naphthyridin-7-yl)cyclopropanecarboxamide] | – | 55.1 nM | IC50 (A375 (BRAF V600E); [3]): 930 nM |
| CCCC(O)c1cc(C)c(-c2cc3cnc(NC(=O)C4CC4)cc3n(C)c2=O)cn1 (single isomer, unassigned) [Example S42, Enantiomer B, N-(3-(6-(1-hydroxybutyl)-4-methylpyridin-3-yl)-1-methyl-2-oxo-1,2-dihydro-1,6-naphthyridin-7-yl)cyclopropanecarboxamide] | – | 14.7 nM | IC50 (A375 (BRAF V600E); [3]): 141 nM |
| CCC(O)c1cc(C)c(-c2cc3cnc(NC(=O)[C@H]4CC4(F)F)cc3n(C)c2=O)cn1 (single isomer, unassigned) [Example S49, Isomer A] | – | 73.8 nM | IC50 (HepG2 (NRAS Q61L); 120 hours): 2750 nM; IC50 (SK-MEL-30 (NRAS Q61K); 120 hours): > 10000 nM; IC50 ([2]; 72 hours): > 10000 nM |
| CCC(O)c1cc(C)c(-c2cc3cnc(NC(C)=O)cc3n(C)c2=O)cn1 (single isomer, unassigned) [Example S59, Enantiomer B, N-(3-(6-(1-hydroxypropyl)-4-methylpyridin-3-yl)-1-methyl-2-oxo-1,2-dihydro-1,6-naphthyridin-7-yl)acetamide] | – | 373 nM | – |
| COCC(O)c1cc(C)c(-c2cc3cnc(NC(=O)C4CC4)cc3n(C)c2=O)cn1 (single isomer, unassigned) [Example S60, Enantiomer A, N-(3-{6-[1-hydroxy-2-methoxyethyl]-4-methylpyridin-3-yl}-1-methyl-2-oxo-1,6-naphthyridin-7-yl)cyclopropanecarboxamide] | – | 120 nM | IC50 (HepG2 (NRAS Q61L); 120 hours): > 10000 nM; IC50 (SK-MEL-30 (NRAS Q61K); 120 hours): > 10000 nM; IC50 (A375 (BRAF V600E); [4]): 5950 nM |
| COCC(O)c1cc(C)c(-c2cc3cnc(NC(=O)C4CC4)cc3n(C)c2=O)cn1 (single isomer, unassigned) [Example S60, Enantiomer B, N-(3-{6-[1-hydroxy-2-methoxyethyl]-4-methylpyridin-3-yl}-1-methyl-2-oxo-1,6-naphthyridin-7-yl)cyclopropanecarboxamide] | – | 19 nM | IC50 (HepG2 (NRAS Q61L); 120 hours): 225 nM; IC50 (SK-MEL-30 (NRAS Q61K); 120 hours): 3260 nM; IC50 (A375 (BRAF V600E); [4]): 1070 nM |
| CCCC(O)c1cc(C)c(-c2cc3cnc(NC(C)=O)cc3n(C)c2=O)cn1 (single isomer, unassigned) [Example S67, Enantiomer B, N-(3-{6-[1-hydroxybutyl]-4-methylpyridin-3-yl}-1-methyl-2-oxo-1,6-naphthyridin-7-yl)acetamide] | – | 23.9 nM | – |
| CCC(O)c1cc(C)c(-c2cc3cnc(NC(=O)[C@@H]4C[C@@H]4F)cc3n(C)c2=O)cn1 (single isomer, unassigned; isomer b) [Example S40, Isomer B] | – | 230 nM | IC50 (A375 (BRAF V600E); [3]): 940 nM |
| CCC(O)c1cc(C)c(-c2cc3cnc(NC(=O)C4CC4)cc3n(C)c2=O)c(C)c1 (stereo in doubt) [Compound 118, (R)—N-(3-(4-(1-hydroxypropyl)-2,6-dimethylphenyl)-1-methyl-2-oxo-1,2-dihydro-1,6-naphthyridin-7-yl)cyclopropanecarboxamide] | – | 1250 nM | – |
| CCC(O)c1cc(C)c(-c2cc3cnc(NC(=O)C4CC4)cc3n(C)c2=O)c(C)c1 (stereo in doubt) [Compound 119, (R)—N-(3-(4-(1-hydroxypropyl)-2,6-dimethylphenyl)-1-methyl-2-oxo-1,2-dihydro-1,6-naphthyridin-7-yl)cyclopropanecarboxamide] | – | 313 nM | – |
| CCC(O)c1cc(C)c(-c2cc3cnc(NC(=O)C4CC4)cc3n(C)c2=O)c(C)c1 (stereo in doubt) [Compound 120, (S)—N-(3-(4-(1-hydroxypropyl)-2,6-dimethylphenyl)-1-methyl-2-oxo-1,2-dihydro-1,6-naphthyridin-7-yl)cyclopropanecarboxamide] | – | > 10000 nM | – |
| CCC(O)c1cc(C)c(-c2cc3cnc(NC(=O)C4CC4)cc3n(C)c2=O)c(C)c1 (stereo in doubt) [Compound 121, (S)—N-(3-(4-(1-hydroxypropyl)-2,6-dimethylphenyl)-1-methyl-2-oxo-1,2-dihydro-1,6-naphthyridin-7-yl)cyclopropanecarboxamide] | – | 151 nM | – |
| CC[C@@H](O)c1cc(C)c(-c2cc3cnc(NC(=O)C4CC4)cc3n(C)c2=O)cn1 [Compound 68, (R)—N-(3-(6-(1-hydroxypropyl)-4-methylpyridin-3-yl)-1-methyl-2-oxo-1,2-dihydro-1,6-naphthyridin-7-yl)cyclopropanecarboxamide] | 249 nM | – | IC50 (A375 (BRAF V600E); [5]): 871 nM; IC50 ([2]; Homo sapiens, OCI-AML2, 72 h): 2510 nM |
| CC[C@@H](O)c1cc(C)c(-c2cc3cnc(NC(=O)[C@H]4C[C@H]4F)cc3n(C)c2=O)cn1 [Compound 109, (1R,2R)-2-fluoro-N-(3-(6-((R)-1-hydroxypropyl)-4-methylpyridin-3-yl)-1-methyl-2-oxo-1,2-dihydro-1,6-naphthyridin-7-yl)cyclopropane-1-carboxamide] | 76.6 nM | – | IC50 (A375 (BRAF V600E); [5]): 1630 nM |
| Cc1cc(-n2cccn2)ncc1-c1cc2cnc(NC(=O)C3CC3)cc2n(C)c1=O [Compound 122, N-{1-methyl-3-[4-methyl-6-(pyrazol-1-yl)pyridin-3-yl]-2-oxo-1,6-naphthyridin-7-yl}cyclopropanecarboxamide] | 478 nM | – | – |
| CCCC(=O)c1cc(C)c(-c2cc3cnc(NC(=O)[C@H]4C[C@H]4F)cc3n(C)c2=O)cn1 [Compound 151, (1R,2R)—N-(3-(6-butyryl-4-methylpyridin-3-yl)-1-methyl-2-oxo-1,2-dihydro-1,6-naphthyridin-7-yl)-2-fluorocyclopropane-1-carboxamide] | 10.4 nM | – | IC50 (HepG2 (NRAS Q61L); Homo sapiens, HepG2, 120 h): 37.3 nM; IC50 (SK-MEL-30 (NRAS Q61K); Homo sapiens, SK-MEL-30, 120 h): 244 nM; IC50 ([2]; Homo sapiens, OCI-AML2, 72 h): 448 nM |

Reference: patent US20240287062A1, “NAPHTHYRIDONE COMPOUNDS FOR INHIBITION OF RAF KINASES AND/OR BCR-ABL TYROSINE KINASES” (Enliven Inc., priority 2021, published 2024)
